From PMC4710522, “A Novel Triazolopyridine-Based Spleen Tyrosine Kinase Inhibitor That Arrests Joint Inflammation” (PLoS ONE, 2016)

Legend:
[1] = target: Syk (Homo sapiens, UniProt P43405); assay: Syk kinase mode of inhibition studies (Caliper LC3000); assay type: biochemical
Experimental: Syk kinase mode of inhibition studies, including parameters described in Fig 1, were conducted on the LC3000 platform by Caliper Life Sciences (Hopkinton, MA) according to standard protocols developed by the supplier. […] Non-kinase enzyme assays and GPCR, ion channel, and transporter binding assays were run by CEREP (France). Non-GLP manual patch clamp hERG assays were run by ChanTest (Cleveland, Ohio). Vivid® Assay kits (Life Technologies) were used to measure the cytochrome P450 inhibition of the compound against CYP3A, CYP2C9, CYP2C19, CYP2D6, and CYP1A2, as described.

[2] = target: T1, Rsk1_h (Homo sapiens, UniProt Q15418); assay: SelectScreen kinase assay; assay type: biochemical; details: KM ATP, read-out: % control
T1 construct: purchased Life Technologies (Invitrogen) SelectScreen, Z'-LYTE / Adapta

[3] = target: T2, KDR (Homo sapiens, UniProt P35968); assay: KDR HTRF assay; assay type: biochemical; details: in-house, mean ± SD
T2 construct: purchased Life Technologies PV3660
Experimental: CC-509 was prepared at a concentration of 1.5 mM in DMSO followed by 3-fold dilutions in Greiner […] polypropylene plates. A 1:4 dilution of compounds by 8 μL/well transfer from the polypropylene plates to 24 μL/well Assay Buffer (50 mM HEPES pH 7.6, 1 mM DTT, 10 mM MgCl2, 0.01% Triton X-100, 0.01% BSA and 0.1 mM EDTA) in Costar 3573 384 well black plates was then performed. Kinase (13 μL/well of 7.7 ng/ml KDR (Life Technologies, Grand Island, NY PV3660) in Assay Buffer) or Assay Buffer only (background controls) were added to Costar 3573 384-well black plates and compound (2 μL/ well) was added from the 1:4 dilution plate. […] Time resolved fluorescence was read in assay plates on a PerkinElmer EnVision. […] The IC50 value was determined as described in the data fitting section below.
For the TEL-Syk assay, the intensity values for the 700 and 800 channel were exported as text files in ActivityBase (IDBS, Guildford, UK) to derive the ratios that reflect kinase activity. […] For the JAK2 HEL and Ramos NFAT β-lactamase assays, the fluorescence values obtained at 460 nm and 530 nm were exported into ActivityBase to calculate response ratios. […] Evans blue dye extravasation was expressed as mean ± SEM and % inhibition for the test article groups was normalized to the cromolyn positive control. […] Data is expressed as mean ± SEM of each group with n = 6–12. […]

[4] = target: T3, JAK2 (Homo sapiens, UniProt O60674); assay: JAK2 HTRF assay; assay type: biochemical
T3 construct: purchased Millipore 14-511
Experimental: CC-509 was prepared at a concentration of 1.5 mM in DMSO followed by 3-fold dilutions in Greiner […] polypropylene plates. A 1:4 dilution of compounds by 8 μL/well transfer from the polypropylene plates to 24 μL/well Assay Buffer (50 mM HEPES pH 7.6, 1 mM DTT, 10 mM MgCl2, 0.01% Triton X100, 0.01% BSA and 0.1 mM EDTA) in Costar 3573 384 well black plates was then performed. Kinase (13 μL/well of 4.6 ng/mL JAK2, Millipore 14–511) or Assay Buffer only (background controls) were added to Costar 3573 384-well black plates and compound (2 μL/well) was added from the 1:4 dilution plate. […] Time resolved fluorescence was read in assay plates on a PerkinElmer EnVision. […]
For the TEL-Syk assay, the intensity values for the 700 and 800 channel were exported as text files in ActivityBase (IDBS, Guildford, UK) to derive the ratios that reflect kinase activity. […] For the JAK2 HEL and Ramos NFAT β-lactamase assays, the fluorescence values obtained at 460 nm and 530 nm were exported into ActivityBase to calculate response ratios. […] Evans blue dye extravasation was expressed as mean ± SEM and % inhibition for the test article groups was normalized to the cromolyn positive control. […] The mean data from each group was plotted and either the AUC(day 11–18) or % inhibition on day 18 was calculated. Data is expressed as mean ± SEM of each group with n = 6–12. […]

[5] = system: rat collagen-induced arthritis model; details: 10 or 30 mg/kg b.i.d.; cited from earlier work
[6] = system: proinflammatory analytes in paw tissue; details: cited from earlier work

T3 sequence (O60674 whole entry): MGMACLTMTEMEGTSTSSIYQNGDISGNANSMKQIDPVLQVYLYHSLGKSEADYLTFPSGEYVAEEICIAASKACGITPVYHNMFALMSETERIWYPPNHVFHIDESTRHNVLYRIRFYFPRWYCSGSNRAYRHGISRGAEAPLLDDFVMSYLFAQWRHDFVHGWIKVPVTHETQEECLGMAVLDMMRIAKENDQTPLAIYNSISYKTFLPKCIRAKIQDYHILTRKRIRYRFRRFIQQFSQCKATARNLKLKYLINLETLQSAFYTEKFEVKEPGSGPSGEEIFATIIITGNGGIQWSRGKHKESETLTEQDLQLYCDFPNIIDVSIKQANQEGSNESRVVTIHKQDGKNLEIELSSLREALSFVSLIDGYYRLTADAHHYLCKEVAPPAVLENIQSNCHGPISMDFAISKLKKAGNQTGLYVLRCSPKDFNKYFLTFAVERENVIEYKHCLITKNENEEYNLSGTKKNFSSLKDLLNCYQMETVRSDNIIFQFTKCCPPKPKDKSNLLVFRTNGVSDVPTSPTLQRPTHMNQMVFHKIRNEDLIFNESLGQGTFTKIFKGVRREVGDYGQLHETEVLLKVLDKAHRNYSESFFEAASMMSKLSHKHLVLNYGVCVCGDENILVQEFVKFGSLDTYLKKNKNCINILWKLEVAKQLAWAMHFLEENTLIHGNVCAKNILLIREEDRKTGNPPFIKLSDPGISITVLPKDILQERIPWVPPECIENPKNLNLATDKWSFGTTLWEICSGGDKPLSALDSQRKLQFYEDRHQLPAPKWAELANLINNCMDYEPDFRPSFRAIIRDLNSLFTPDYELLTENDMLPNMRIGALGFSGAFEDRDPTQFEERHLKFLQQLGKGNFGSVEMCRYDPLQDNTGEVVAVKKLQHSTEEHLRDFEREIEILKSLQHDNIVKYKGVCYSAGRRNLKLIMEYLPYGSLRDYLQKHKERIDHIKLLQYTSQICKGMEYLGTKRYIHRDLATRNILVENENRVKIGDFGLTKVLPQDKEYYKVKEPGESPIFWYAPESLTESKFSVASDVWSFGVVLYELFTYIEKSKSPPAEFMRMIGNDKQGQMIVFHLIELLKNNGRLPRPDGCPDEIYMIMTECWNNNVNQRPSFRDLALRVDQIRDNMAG
T2 sequence (P35968 20-1356): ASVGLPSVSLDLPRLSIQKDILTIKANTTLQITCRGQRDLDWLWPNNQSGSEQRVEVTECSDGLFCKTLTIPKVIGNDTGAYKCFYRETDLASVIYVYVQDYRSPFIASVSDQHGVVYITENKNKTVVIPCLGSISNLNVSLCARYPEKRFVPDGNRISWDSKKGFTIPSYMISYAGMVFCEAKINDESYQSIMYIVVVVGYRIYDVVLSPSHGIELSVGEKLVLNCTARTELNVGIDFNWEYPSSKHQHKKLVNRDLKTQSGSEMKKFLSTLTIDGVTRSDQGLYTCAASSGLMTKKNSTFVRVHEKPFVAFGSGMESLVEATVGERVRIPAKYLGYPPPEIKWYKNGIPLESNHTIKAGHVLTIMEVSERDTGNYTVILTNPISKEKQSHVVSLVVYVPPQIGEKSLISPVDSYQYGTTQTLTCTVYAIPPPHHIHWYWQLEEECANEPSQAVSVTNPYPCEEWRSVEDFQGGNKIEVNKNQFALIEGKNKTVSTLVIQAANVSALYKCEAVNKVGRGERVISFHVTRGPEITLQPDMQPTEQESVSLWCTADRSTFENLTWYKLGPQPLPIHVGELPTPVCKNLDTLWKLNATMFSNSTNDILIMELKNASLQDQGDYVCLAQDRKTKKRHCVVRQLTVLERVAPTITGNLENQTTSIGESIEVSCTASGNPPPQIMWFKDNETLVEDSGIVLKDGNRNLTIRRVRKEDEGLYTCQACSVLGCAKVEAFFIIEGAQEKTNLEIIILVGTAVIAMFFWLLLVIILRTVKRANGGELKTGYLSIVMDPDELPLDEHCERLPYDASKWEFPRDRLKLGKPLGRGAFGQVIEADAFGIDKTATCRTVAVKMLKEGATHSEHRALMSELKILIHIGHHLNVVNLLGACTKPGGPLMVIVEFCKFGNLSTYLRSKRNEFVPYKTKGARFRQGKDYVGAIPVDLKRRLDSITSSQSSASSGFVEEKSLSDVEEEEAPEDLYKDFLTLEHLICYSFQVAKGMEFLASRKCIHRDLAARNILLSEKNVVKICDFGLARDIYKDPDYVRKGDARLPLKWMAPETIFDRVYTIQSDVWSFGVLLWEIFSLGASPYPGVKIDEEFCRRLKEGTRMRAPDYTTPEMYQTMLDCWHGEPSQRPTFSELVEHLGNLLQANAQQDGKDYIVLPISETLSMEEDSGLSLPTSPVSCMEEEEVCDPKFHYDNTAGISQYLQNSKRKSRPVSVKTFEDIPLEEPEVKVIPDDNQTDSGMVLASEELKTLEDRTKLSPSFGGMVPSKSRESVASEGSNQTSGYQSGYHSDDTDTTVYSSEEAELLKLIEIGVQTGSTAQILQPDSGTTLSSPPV
T1 sequence (Q15418 whole entry): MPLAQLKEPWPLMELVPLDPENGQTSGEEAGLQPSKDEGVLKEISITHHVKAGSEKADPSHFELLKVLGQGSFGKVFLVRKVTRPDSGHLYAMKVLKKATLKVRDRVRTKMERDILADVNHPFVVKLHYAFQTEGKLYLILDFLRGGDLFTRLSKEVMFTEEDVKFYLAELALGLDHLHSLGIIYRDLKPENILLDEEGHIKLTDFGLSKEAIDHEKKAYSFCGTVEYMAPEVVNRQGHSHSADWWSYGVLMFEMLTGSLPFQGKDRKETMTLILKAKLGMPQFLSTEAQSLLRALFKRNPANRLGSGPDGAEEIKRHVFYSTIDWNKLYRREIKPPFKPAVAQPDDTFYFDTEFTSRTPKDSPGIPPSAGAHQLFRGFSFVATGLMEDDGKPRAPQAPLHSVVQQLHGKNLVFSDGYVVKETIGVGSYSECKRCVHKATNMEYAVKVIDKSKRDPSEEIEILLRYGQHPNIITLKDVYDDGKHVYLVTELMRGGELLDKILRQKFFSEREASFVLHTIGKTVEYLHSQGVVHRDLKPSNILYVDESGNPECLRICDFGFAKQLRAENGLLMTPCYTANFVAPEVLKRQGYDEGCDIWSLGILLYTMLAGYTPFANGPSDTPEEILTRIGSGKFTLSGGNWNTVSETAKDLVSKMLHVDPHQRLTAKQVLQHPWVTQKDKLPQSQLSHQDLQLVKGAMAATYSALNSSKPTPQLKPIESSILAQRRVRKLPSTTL

SMILES	Ki [1] [nM]	mode of inhibition with respect to the Syk ATP binding site ([1]; based on enzyme kinetics)	remaining activity at 3 µM [2] [%]	IC50 [3] [nM]	fold less potent than R406, Jak2 enzyme ([4]; data not shown) [fold]	IC50 ([4]; in-house, mean ± SD) [nM]	clinical paw score in rat CIA [5]	expression of MCP-1, KC, IL-6 and IL-1β in the CIA model [6]
c1cc(CC2CCOCC2)n2nc(Nc3ccc4c(NC5CCOCC5)n[nH]c4c3)nc2c1 [CC-509, [3-(2H-3,4,5,6-tetrahydropyran-4-ylamino)(1H-indazol-6-yl)][5-(2H-3,4,5,6-tetrahydropyran-4-ylmethyl)(2H-1,2,4-triazolo[1,5-a]pyridin-2-yl)]amine]	18	mixed competitive inhibitor	60	150 ± 30	22	19 ± 2	–	–
COc1cc(Nc2ncc(F)c(Nc3ccc4c(n3)NC(=O)C(C)(C)O4)n2)cc(OC)c1OC [R406, reference compound]	–	–	–	–	–	–	significantly reduced	inhibited
